Assay results reported in patent US8729095B2, “3-(biaryloxy)propionic acid derivatives for prevention and/or treatment of thromboembolic diseases” (Daiichi Sankyo Company, Limited, priority 2009, dated 2014).

Test system: platelet aggregation induced by ADP in human platelet-rich plasma (PRP)
Experiment: Human platelet aggregation inhibitory activity (ADP-induced, platelet-rich plasma)
Format: cell-based
Settings: 8 min, ADP final concentration 20 μM, maximum aggregation rate, measured for 8 minutes
Description: A blood collecting syringe containing 1/10 volume of a 3.8% sodium citrate solution was used to collect blood from radial vein of a healthy person. The collected blood was centrifuged at 180×g at room temperature for 10 minutes to separate the supernatant (platelet-rich plasma; PRP). After PRP was separately collected, the remaining blood was centrifuged at 1,600×g for 10 minutes to separately collect platelet-poor plasma (PPP) of the upper layer. PRP was left at rest at 16° C. for 30 minutes, and subsequently used for measurement.
200 μL of the separately collected PRP was dispensed into a cuvette for the aggregation test, and 1 μL of dimethylsulfoxide (control) or a test compound solution diluted with dimethylsulfoxide was added, followed by incubation at 37° C. for 2 minutes. Subsequently, 2 μL of 2 mM ADP was added (final concentration 20 μM) to induce platelet aggregation.
Platelet aggregation was measured for 8 minutes using an aggregometer (MCM HEMA TRACER 313M; MC MEDICAL, INC.). With the light transmittance rate of PPP being set as an aggregation value of 100%, the maximum aggregation rate was determined for each concentration of the test compounds to calculate IC50 values.

Row | Structure (SMILES) | IC50
1 | C[C@@H]1Oc2ncc(F)cc2N(C2CCN(C(=O)c3ccc(-c4ccccc4OCC(C)(C)C(=O)O)cc3F)CC2)C1=O [Example 1, 3-{[3′-Fluoro-4′-({4-[(3S)-7-fluoro-3-methyl-2-oxo-2,3-dihydro-1H-pyrido[2,3-b][1,4]oxazin-1-yl]piperidin-1-yl}carbonyl)biphenyl-2-yl]oxy}-2,2-dimethylpropanoic acid] | 15 µM
2 | CC(C)(COc1ccccc1-c1ccc(C(=O)N2CCC(N3C(=O)C(C)(C)Oc4ncc(C(F)(F)F)cc43)CC2)c(F)c1)C(=O)O [Example 3, 3-{[4′-({4-[3,3-Dimethyl-2-oxo-7-(trifluoromethyl)-2,3-dihydro-1H-pyrido[2,3-b][1,4]oxazin-1-yl]piperidin-1-yl}carbonyl)-3′-fluorobiphenyl-2-yl]oxy}-2,2-dimethylpropanoic acid] | 3.8 µM
3 | Cc1cnc2c(c1)N(C1CCN(C(=O)c3ccc(-c4ccccc4OCC(C)(C)C(=O)O)cc3F)CC1)C(=O)C(C)O2 (centres unmarked) [Example 4, 3-[(4′-{[4-(3,7-Dimethyl-2-oxo-2,3-dihydro-1H-pyrido[2,3-b][1,4]oxazin-1-yl)piperidin-1-yl]carbonyl}-3′-fluorobiphenyl-2-yl)oxy]-2,2-dimethylpropanoic acid] | 4 µM
4 | C[C@H](CC(=O)O)Oc1ccccc1-c1ccc(C(=O)N2CCC(N3C(=O)COc4ncc(Cl)cc43)CC2)c(F)c1 [Example 7, (3R)-3-[(4′-{[4-(7-Chloro-2-oxo-2,3-dihydro-1H-pyrido[2,3-b][1,4]oxazin-1-yl)piperidin-1-yl]carbonyl}-3′-fluorobiphenyl-2-yl)oxy]butanoic acid] | 7.9 µM
5 | C[C@H](CC(=O)O)Oc1ccccc1-c1ccc(C(=O)N2CCC(N3C(=O)CCc4ncc(Cl)cc43)CC2)c(F)c1 [Example 8, (3R)-3-[(4′-{[4-(7-Chloro-2-oxo-3,4-dihydro-1,5-naphthyridin-1(2H)-yl)piperidin-1-yl]carbonyl}-3′-fluorobiphenyl-2-yl)oxy]butanoic acid] | 14 µM
6 | C[C@@H](COc1ccccc1-c1ccc(C(=O)N2CCC(N3C(=O)CCc4ncc(Cl)cc43)CC2)c(F)c1)C(=O)O [Example 12, (2S)-3-[(4′-{[4-(7-Chloro-2-oxo-3,4-dihydro-1,5-naphthyridin-1(2H)-yl)piperidin-1-yl]carbonyl}-3′-fluorobiphenyl-2-yl)oxy]-2-methylpropanoic acid] | 16 µM
7 | Cc1cc(-c2ccccc2OCC(C)(C)C(=O)O)ccc1C(=O)N1CCC(N2C(=O)C3(CC3)Oc3ncc(Cl)cc32)CC1 [Example 15, 3-[(4′-{[4-(7′-Chloro-2′-oxospiro[cyclopropane-1,3′-pyrido[2,3-b][1,4]oxazin]-1′(2′H)-yl)piperidin-1-yl]carbonyl}-3′-methylbiphenyl-2-yl)oxy]-2,2-dimethylpropanoic acid] | 5.8 µM
8 | CC(C)(COc1ccccc1-c1ccc(C(=O)N2CCC(N3C(=O)C4(CC4)Oc4ncc(Cl)cc43)CC2)c(Cl)c1)C(=O)O [Example 18, 3-[(3′-Chloro-4′-{[4-(7′-chloro-2′-oxospiro[cyclopropane-1,3′-pyrido[2,3-b][1,4]oxazin]-1′(2′H)-yl)piperidin-1-yl]carbonyl}biphenyl-2-yl)oxy]-2,2-dimethylpropanoic acid] | 10 µM
9 | C[C@@H]1Oc2ncc(Cl)cc2N(C2CCN(C(=O)c3ccc(-c4ccccc4OCC(C)(C)C(=O)O)cc3)CC2)C1=O [Example 20, 3-{[4′-({4-[(3S)-7-Chloro-3-methyl-2-oxo-2,3-dihydro-1H-pyrido[2,3-b][1,4]oxazin-1-yl]piperidin-1-yl}carbonyl)biphenyl-2-yl]oxy}-2,2-dimethylpropanoic acid] | 2.8 µM
10 | CC(C)(COc1ccccc1-c1ccc(C(=O)N2CCC(N3C(=O)C(C)(C)Oc4ncc(Cl)cc43)CC2)c(O)c1)C(=O)O [Example 21, 3-[(4′-{[4-(7-Chloro-3,3-dimethyl-2-oxo-2,3-dihydro-1H-pyrido[2,3-b][1,4]oxazin-1-yl)piperidin-1-yl]carbonyl}-3′-hydroxybiphenyl-2-yl)oxy]-2,2-dimethylpropanoic acid] | 8.7 µM
11 | CC(C)(COc1ccccc1-c1ccc(C(=O)N2CCC(N3C(=O)C(C)(C)Oc4ncc(Cl)cc43)CC2)c([N+](=O)[O-])c1)C(=O)O [Example 22, 3-[(4′-{[4-(7-Chloro-3,3-dimethyl-2-oxo-2,3-dihydro-1H-pyrido[2,3-b][1,4]oxazin-1-yl)piperidin-1-yl]carbonyl}-3′-nitrobiphenyl-2-yl)oxy]-2,2-dimethylpropanoic acid] | 5.7 µM
12 | CC1(C)Oc2ncc(Cl)cc2N(C2CCN(C(=O)c3ccc(-c4ccccc4OCC4(C(=O)O)CC4)cc3F)CC2)C1=O [Example 23, 1-{[(4′-{[4-(7-Chloro-3,3-dimethyl-2-oxo-2,3-dihydro-1H-pyrido[2,3-b][1,4]oxazin-1-yl)piperidin-1-yl]carbonyl}-3′-fluorobiphenyl-2-yl)oxy]methyl}cyclopropanecarboxylic acid] | 5.2 µM
13 | Cc1cnc2c(c1)N(C1CCN(C(=O)c3ccc(-c4ccccc4O[C@H](C)CC(=O)O)cc3F)CC1)C(=O)C(C)(C)O2 [Example 30, (3R)-3-[(4′-{[4-(3,3,7-Trimethyl-2-oxo-2,3-dihydro-1H-pyrido[2,3-b][1,4]oxazin-1-yl)piperidin-1-yl]carbonyl}-3′-fluorobiphenyl-2-yl)oxy]butanoic acid] | 2 µM
14 | C[C@H](CC(=O)O)Oc1ccc(F)cc1-c1ccc(C(=O)N2CCC(N3C(=O)COc4ncc(Cl)cc43)CC2)c(F)c1 [Example 31, (3R)-3-[(4′-{[4-(7-Chloro-2-oxo-2,3-dihydro-1H-pyrido[2,3-b][1,4]oxazin-1-yl)piperidin-1-yl]carbonyl}-3′,5-difluorobiphenyl-2-yl)oxy]butanoic acid] | 18 µM
15 | C[C@H](CC(=O)O)Oc1ccc(F)cc1-c1ccc(C(=O)N2CCC(N3C(=O)CCc4ncc(Cl)cc43)CC2)c(F)c1 [Example 32, (3R)-3-[(4′-{[4-(7-Chloro-2-oxo-3,4-dihydro-1,5-naphthyridin-1(2H)-yl)piperidin-1-yl]carbonyl}-3′,5-difluorobiphenyl-2-yl)oxy]butanoic acid] | 17 µM
16 | C[C@H](C(=O)O)[C@@H](C)Oc1ccccc1-c1ccc(C(=O)N2CCC(N3C(=O)C(C)(C)Oc4ncc(Cl)cc43)CC2)c(F)c1 [Example 33, (2S,3R)-3-[(4′-{[4-(7-Chloro-3,3-dimethyl-2-oxo-2,3-dihydro-1H-pyrido[2,3-b][1,4]oxazin-1-yl)piperidin-1-yl]carbonyl}-3′-fluorobiphenyl-2-yl)oxy]-2-methylbutanoic acid] | 16 µM
17 | CC1(C)Cc2ncc(Cl)cc2N(C2CCN(C(=O)c3ccc(-c4cc(F)ccc4OCCC(=O)O)cc3F)CC2)C1=O [Example 37, 3-[(4′-{[4-(7-Chloro-3,3-dimethyl-2-oxo-3,4-dihydro-1,5-naphthyridin-1(2H)-yl)piperidin-1-yl]carbonyl}-3′,5-difluorobiphenyl-2-yl)oxy]propanoic acid] | 6.6 µM
18 | C[C@H](CC(=O)O)Oc1ccccc1-c1cnc(C(=O)N2CCC(N3C(=O)C(C)(C)Oc4ncc(Cl)cc43)CC2)c(F)c1 [Example 39, (3R)-3-[2-(6-{[4-(7-Chloro-3,3-dimethyl-2-oxo-2,3-dihydro-1H-pyrido[2,3-b][1,4]oxazin-1-yl)piperidin-1-yl]carbonyl}-5-fluoropyridin-3-yl)phenoxy]butanoic acid] | 1 µM
19 | C[C@H](CC(=O)O)Oc1ccccc1-c1cnc(C(=O)N2CCC(N3C(=O)[C@H](C)Oc4ncc(Cl)cc43)CC2)c(F)c1 [Example 40, (3R)-3-{2-[6-({4-[(3S)-7-Chloro-3-methyl-2-oxo-2,3-dihydro-1H-pyrido[2,3-b][1,4]oxazin-1-yl]piperidin-1-yl}carbonyl)-5-fluoropyridin-3-yl]phenoxy}butanoic acid] | 1.1 µM
20 | C[C@H](CC(=O)O)Oc1ccc(F)cc1-c1cnc(C(=O)N2CCC(N3C(=O)[C@H](C)Oc4ncc(Cl)cc43)CC2)c(F)c1 [Example 43, (3R)-3-{2-[6-({4-[(3S)-7-Chloro-3-methyl-2-oxo-2,3-dihydro-1H-pyrido[2,3-b][1,4]oxazin-1-yl]piperidin-1-yl}carbonyl)-5-fluoropyridin-3-yl]-4-fluorophenoxy}butanoic acid] | 2.6 µM
21 | C[C@@H](COc1ccccc1-c1cnc(C(=O)N2CCC(N3C(=O)C(C)(C)Oc4ncc(Cl)cc43)CC2)c(F)c1)C(=O)O [Example 47, (2S)-3-[2-(6-{[4-(7-Chloro-3,3-dimethyl-2-oxo-2,3-dihydro-1H-pyrido[2,3-b][1,4]oxazin-1-yl)piperidin-1-yl]carbonyl}-5-fluoropyridin-3-yl)phenoxy]-2-methylpropanoic acid] | 2 µM
22 | C[C@@H](COc1ccc(F)cc1-c1cnc(C(=O)N2CCC(N3C(=O)C(C)(C)Cc4ncc(Cl)cc43)CC2)c(F)c1)C(=O)O [Example 48, (2S)-3-[2-(6-{[4-(7-Chloro-3,3-dimethyl-2-oxo-3,4-dihydro-1,5-naphthyridin-1(2H)-yl)piperidin-1-yl]carbonyl}-5-fluoropyridin-3-yl)-4-fluorophenoxy]-2-methylpropanoic acid] | 3.7 µM
23 | C[C@@H](COc1ccc(F)cc1-c1cnc(C(=O)N2CCC(N3C(=O)C(C)(C)Oc4ncc(Cl)cc43)CC2)c(F)c1)C(=O)O [Example 49, (2S)-3-[2-(6-{[4-(7-Chloro-3,3-dimethyl-2-oxo-2,3-dihydro-1H-pyrido[2,3-b][1,4]oxazin-1-yl)piperidin-1-yl]carbonyl}-5-fluoropyridin-3-yl)-4-fluorophenoxy]-2-methylpropanoic acid] | 1.7 µM
